Columns and labels:
[1] = test system: COX2 expression by mouse bladder cells; assay: Cell-based ELISA of total COX2 in mouse bladder cells; details: for induction of COX2 responses by analgesic alone: 5 μM or 50 μM, 24-hour cultures, no stimulus; for effect on the effect of LPS on COX2 levels: LPS (1 μg/ml), analgesic at either 5 μM or 50 μM
Experimental: Bladder cells were removed from euthanized animals C57BL/6 mice (8-12 weeks old) and cells were isolated by enzymatic digestion followed by purification on a Percoll gradient. Briefly, bladders from 10 mice were minced with scissors to fine slurry in 10 ml of digestion buffer (RPMI 1640, 2% fetal bovine serum, 0.5 mg/ml collagenase, 30 μg/ml DNase). Bladder slurries were enzymatically digested for 30 minutes at 37° C. Undigested fragments were further dispersed through a cell-trainer. The cell suspension was pelleted and added to a discontinue 20%, 40% and 75% Percoll gradient for purification on mononuclear cells. Each experiment used 50-60 bladders.
After washes in RPMI 1640, bladder cells were resuspended RPMI 1640 supplemented with 10% fetal bovine serum, 15 mM HEPES, 2 mM L-glutamine, 100 U/ml penicillin, and 100 μg/ml of streptomycin and seeded in clear-bottom black 96-well cell culture microculture plates at a cell density of 3×10^4 cells per well in 100 μl. Cells were cultured at 37° C. in a 5% CO2 atmosphere.
Bladder cells were treated with analgesic solutions (50 well) either alone or together with carbachol (10-Molar, 50 μl/well), as an example of non-inflammatory stimuli, or lipopolysaccharide (LPS) of Salmonella typhimurium (1 μg/ml, 50 μl/well), as an example of […] stimuli. When no other effectors were added to the cells, 50 μl of RPMI 1640 without fetal bovine serum were added to the wells to adjust the final volume to 200 μl.
After 24 hours of culture, 150 μl of culture supernatants were collected, spun down for 2 min at 8,000 rpm at 4° C. to remove cells and debris and stored at −70° C. for analysis of Prostaglandin E2 (PGE2) responses by ELISA. Cells were fixed, permeabilized and blocked for detection of Cyclooxygenase-2 (COX2) using a fluorogenic substrate. In selected experiment cells were stimulated 12 hours in vitro for analysis of COX2 responses
COX2 responses were analyzed by a Cell-Based ELISA using Human/mouse total COX2 immunoassay (R&D Systems), following the instructions of the manufacturer. Briefly, after cells fixation and permeabilization, a mouse anti-total COX2 and a rabbit anti-total GAPDH were added to the wells of the clear-bottom black 96-well cell culture microculture plates. After incubation and washes, an HRP-conjugated anti-mouse IgG and an AP-conjugated anti-rabbit IgG were added to the wells. Following another incubation and set of washes, the HRP- and AP-fluorogenic substrates were added. Finally, a Victor® V multilabel plate reader (PerkinElmer) was used to read the fluorescence emitted at 600 nm (COX2 fluorescence) and 450 nm (GAPDH fluorescence). Results are expressed as relative levels of total COX2 as determined by relative fluorescence unit (RFUs) and normalized to the housekeeping protein GAPDH.

[2] = Inhibition of the urge to urinate in volunteer subjects; assay type: in vivo, human
Source text: Twenty volunteer subjects, both male and female were enrolled, each of which experienced premature urge or desire to urinate, interfering with their ability to sleep for a sufficient period of time to feel adequately rested. […] At least 14 subjects reported that they were able to rest better because they were not being awakened as frequently by the urge to urinate.

[3] = Serum levels of analgesic in human blood after oral therapeutic doses; assay type: in vivo; details: adult humans, conversion of mg/L by molecular weight
Source text: Table 3 summarizes the results of several studies that measured serum levels of analgesic after oral therapeutic doses in adult humans. […] Therefore, the doses of analgesic tested in vitro in Table 2 cover the range of concentrations achievable in vivo in humans.

[4] = LPS (1 μg/ml) plus analgesic 5 μM, LPS alone 420 ± 26, unstimulated 158 ± 18
[5] = LPS (1 μg/ml) plus analgesic 50 μM, LPS alone 420 ± 26, unstimulated 158 ± 18

Compound	induction of COX2 responses by analgesic alone [1]	Total COX2 levels (Normalized RFUs) [1, 4]	Total COX2 levels (Normalized RFUs) [1, 5]	effect on the effect of LPS on COX2 levels [1]	Total COX2 levels (Normalized RFUs) ([1]; stimulus alone, no analgesic (LPS 1 μg/ml, Carbachol (mM)), unstimulated 158 ± 18)	Total COX2 levels (Normalized RFUs) ([1]; stimulus alone, no analgesic (LPS 1 μg/ml, Carbachol (mM)), unstimulated 158 ± 18, listed as carbachol)	benefit of less frequent urges to urinate after several weeks of nightly use ([2]; several subjects)	benefit after several days of abstaining from taking the dosages ([2]; subjects who had lost the benefit)	subjects who reported that they were able to rest better because they were not being awakened as frequently by the urge to urinate ([2]; twenty volunteer subjects, 400-800 mg as a single dose prior to bedtime)	Maximum serum levels after oral therapeutic doses [3]
CC(=O)Nc1ccc(O)cc1 [Acetaminophen, N-acetyl-para-aminophenol]	none of the analgesics tested induced COX2 responses	275 ± 12 Normalized RFUs	243 ± 15 Normalized RFUs	suppress						
CC(=O)Oc1ccccc1C(=O)O [Aspirin, Acetylsalicylic acid]	none of the analgesics tested induced COX2 responses	240 ± 17 Normalized RFUs	258 ± 21 Normalized RFUs	suppress						
C[N+](C)(C)CCOC(N)=O [Carbachol, carbachol]					149 ± 21 Normalized RFUs	no significant effect				
CC(C)Cc1ccc(C(C)C(=O)O)cc1 (stereo not drawn) [Ibuprofen, ibuprofen]							no longer being realized	return of the benefit	At least 14 subjects	
COc1ccc2cc([C@H](C)C(=O)O)ccc2c1 [Naproxen]	none of the analgesics tested induced COX2 responses	284 ± 11 Normalized RFUs	279 ± 23 Normalized RFUs	suppress						≤ 260 µM
